Where two headings read alike, the source gives them in different places.

This note sets out measurements from US20250228239A1, “MOLECULES HAVING PESTICIDAL UTILITY, AND INTERMEDIATES, COMPOSITIONS, AND PROCESSES, RELATED THERETO” (priority 2024, published 2025).

Assay [1] deals with Cabbage Looper (Trichoplusia ni, TRIPNI). Description: Bioassays on Cabbage Looper (CL), 128-well diet tray assay. It counts as in vivo. The note with it: Trichoplusia ni. The procedure, abridged: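 Activity is mean percent mortality over eight wells of second-instar larvae exposed to diet treated at 50 μg/cm^2 for 5–7 days at 25° C.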
Assay [2] relates to Beet Armyworm (Spodoptera exigua, LAPHEG). The assay is described as follows: Bioassays on Beet Armyworm (BAW), 128-well diet tray assay. The assay is classed as in vivo. The note with it: Spodoptera exigua. The method, boiled down: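 Eight diet wells per compound were treated at 50 μg/cm^2 (acetone-water 90:10), dried, then infested with 1–5 second-instar larvae each. After five to seven days at 25 °C under 14:10 photoperiod, mortality was scored and averaged across wells.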

The mark [3] stands for this setting: Cabbage Looper, Table ABC / ABC-DP rating, read-out: CL rating.
[4] abbreviates: Beet Armyworm, Table ABC / ABC-DP rating, read-out: BAW rating.
Where [5] appears, read: Table ABC: Biological Results, species CL, read-out: CL.
Setting [6] is: Table ABC: Biological Results, species BAW, read-out: BAW.
Where [7] appears, read: Cabbage Looper, rating class, read-out: CL.
Where [8] appears, read: Beet Armyworm, rating class, read-out: BAW.

In the case of `O=C(Nc1ccc(F)c(NC(=O)C2(COC(F)(F)F)CC2)c1F)c1cc(NC(=O)[C@H]2[C@H](c3ccc(F)c(C(F)(F)F)c3)C2(Cl)Cl)ccc1Cl` [F1821, 2-Chloro-5-((1R,3R)-2,2-dichloro-3-(4-fluoro-3-(trifluoromethyl)phenyl)cyclopropane-1-carboxamido)-N-(2,4-difluoro-3-(1-((trifluoromethoxy)methyl)cyclopropane-1-carboxamido)phenyl)benzamide], the pest or weed control at 50 µg/cm2 in assay [1] (setting [3]) and in assay [2] (setting [4]) was 50 to 100% in each case.

`O=C(Nc1ccc(F)c(NC(=O)C(F)(F)F)c1F)c1cc(NC(=O)[C@H]2[C@H](c3ccc(F)c(C(F)(F)F)c3)C2(Cl)Cl)cc(F)c1Cl` [F1290, 2-Chloro-5-((1R,3R)-2,2-dichloro-3-(4-fluoro-3-(trifluoromethyl)phenyl)cyclopropane-1-carboxamido)-N-(2,4-difluoro-3-(2,2,2-trifluoroacetamido)phenyl)-3-fluorobenzamide]: the pest or weed control at 50 µg/cm2 in assay [1] (setting [5]) and in assay [2] (setting [6]) was 50 to 100% throughout.

Turning to `O=C(Nc1cc(NC(=O)C(F)(F)F)c(F)cc1F)c1cc(NC(=O)[C@H]2[C@H](c3ccc(F)c(C(F)(F)F)c3)C2(Cl)Cl)cc(F)c1Cl` [F1407, 2-Chloro-5-((1R,3R)-2,2-dichloro-3-(4-fluoro-3-(trifluoromethyl)phenyl)cyclopropane-1-carboxamido)-N-(2,4-difluoro-5-(2,2,2-trifluoroacetamido)phenyl)-3-fluorobenzamide], the pest or weed control at 50 µg/cm2 in assay [1] (setting [7]) and in assay [2] (setting [8]) was 50 to 100% throughout.

On to `O=C(Nc1ccc(F)c(NC(=O)C2CCCOC2)c1F)c1cc(NC(=O)[C@H]2[C@H](c3ccc(F)c(C(F)(F)F)c3)C2(Cl)Cl)ccc1Cl` (stereo partly drawn) [F1722, N-(3-(2-Chloro-5-((1R,3R)-2,2-dichloro-3-(4-fluoro-3-(trifluoromethyl)phenyl)cyclopropane-1-carboxamido)benzamido)-2,6-difluorophenyl)tetrahydro-2H-pyran-3-carboxamide], for which the pest or weed control at 50 µg/cm2 in assay [1] (setting [7]) and in assay [2] (setting [8]) was 50 to 100% each time.

For the compound `CC(C)(C)OC(=O)N(C(=O)OC(C)(C)C)c1c(F)ccc(NC(=O)c2cc(NC(=O)[C@H]3[C@H](c4cc(F)cc(C(F)(F)F)c4)C3(Cl)Cl)ccc2Cl)c1F` [F1681, tert-Butyl N-tert-butoxycarbonyl-N-[3-[[2-chloro-5-[[(1R,3R)-2,2-dichloro-3-[3-fluoro-5-(trifluoromethyl)phenyl]cyclopropanecarbonyl]amino]benzoyl]amino]-2,6-difluoro-phenyl]carbamate], the pest or weed control at 50 µg/cm2 in assay [1] (setting [7]) and in assay [2] (setting [8]) was 50 to 100% each time.

Take `O=C(Nc1cc(NC(=O)C(F)F)c(F)cc1F)c1cc(NC(=O)[C@H]2[C@H](c3ccc(Cl)c(Cl)c3)C2(Cl)Cl)ccc1F` [F1509, 5-((1R,3R)-2,2-Dichloro-3-(3,4-dichlorophenyl)cyclopropane-1-carboxamido)-N-(5-(2,2-difluoroacetamido)-2,4-difluorophenyl)-2-fluorobenzamide]: the pest or weed control at 50 µg/cm2 in assay [1] (setting [7]) and in assay [2] (setting [8]) was 50 to 100% throughout.

In the case of `CC(=O)Nc1cc(NC(=O)c2cc(NC(=O)[C@H]3[C@H](c4cc(Cl)cc(Cl)c4)C3(Cl)Cl)ccc2Cl)ccc1F` (relative stereo) [F1638, trans-N-(3-Acetamido-4-fluorophenyl)-2-chloro-5-(2,2-dichloro-3-(3,5-dichlorophenyl)cyclopropane-1-carboxamido)benzamide], the pest or weed control at 50 µg/cm2 in assay [1] (setting [7]) and in assay [2] (setting [8]) was 50 to 100% in each case.

For `O=C(NCC(F)(F)F)c1c(Cl)ccc(NC(=O)[C@H]2[C@H](c3ccc(F)c(Cl)c3)C2(Cl)Cl)c1F` [F2072, 6-Chloro-3-((1R,3R)-2,2-dichloro-3-(3-chloro-4-fluorophenyl)cyclopropane-1-carboxamido)-2-fluoro-N-(2,2,2-trifluoroethyl)benzamide], the pest or weed control at 50 µg/cm2 in assay [1] (setting [3]) and in assay [2] (setting [4]) was 50 to 100% each time.

Consider `Nc1c(F)ccc(NC(=O)c2cc(NC(=O)[C@H]3[C@H](c4ccc(F)c(I)c4)C3(Cl)Cl)ccc2Cl)c1F` (relative stereo) [F1622, trans-N-(3-Amino-2,4-difluorophenyl)-2-chloro-5-(2,2-dichloro-3-(4-fluoro-3-iodophenyl)cyclopropane-1-carboxamido)benzamide], for which the pest or weed control at 50 µg/cm2 in assay [1] (setting [7]) and in assay [2] (setting [8]) was 50 to 100% each time.

Consider `O=C(Nc1ccc(F)c(NC(=O)C(F)F)c1F)c1cc(NC(=O)[C@H]2[C@H](c3cc(Cl)cc(Cl)c3)C2(Cl)Cl)cc(F)c1Cl` [F1333, 2-Chloro-5-((1R,3R)-2,2-dichloro-3-(3,5-dichlorophenyl)cyclopropane-1-carboxamido)-N-(3-(2,2-difluoroacetamido)-2,4-difluorophenyl)-3-fluorobenzamide], for which the pest or weed control at 50 µg/cm2 in assay [1] (setting [5]) and in assay [2] (setting [6]) was 50 to 100% throughout.

As for `CC(=O)Nc1c(F)ccc(NC(=O)c2cc(NC(=O)[C@H]3[C@H](c4ccc(F)c(C(F)(F)F)c4)C3(Cl)Cl)cc(C)c2Cl)c1F` [F1545, N-(3-acetamido-2,4-difluorophenyl)-2-chloro-5-((1R,3R)-2,2-dichloro-3-(4-fluoro-3-(trifluoromethyl)phenyl)cyclopropane-1-carboxamido)-3-methylbenzamide], the pest or weed control at 50 µg/cm2 in assay [1] (setting [7]) and in assay [2] (setting [8]) was 50 to 100% each time.

`O=C1CC(C(=O)Nc2c(F)ccc(NC(=O)c3cc(NC(=O)[C@H]4[C@H](c5cc(Cl)c(Cl)c(Cl)c5)C4(Cl)Cl)ccc3Cl)c2F)C1` [F1649, 2-Chloro-5-((1R,3R)-2,2-dichloro-3-(3,4,5-trichlorophenyl)cyclopropane-1-carboxamido)-N-(2,4-difluoro-3-(3-oxocyclobutane-1-carboxamido)phenyl)benzamide]: the pest or weed control at 50 µg/cm2 in assay [1] (setting [7]) and in assay [2] (setting [8]) was 50 to 100% in each case.

Regarding `O=C(Nc1c(F)ccc(NC(=O)C(F)F)c1F)c1cc(NC(=O)[C@H]2[C@H](c3ccc(F)c(C(F)(F)F)c3)C2(Cl)Cl)cc(F)c1Cl` [F1347, 2-Chloro-5-((1R,3R)-2,2-dichloro-3-(4-fluoro-3-(trifluoromethyl)phenyl)cyclopropane-1-carboxamido)-N-(3-(2,2-difluoroacetamido)-2,6-difluorophenyl)-3-fluorobenzamide], the pest or weed control at 50 µg/cm2 in assay [1] (setting [5]) and in assay [2] (setting [6]) was 50 to 100% each time.

Turning to `O=C(Nc1c(F)ccc(NC(=O)C(F)(F)C(F)(F)C(F)(F)F)c1F)c1cc(NC(=O)[C@H]2[C@H](c3cc(Cl)c(Cl)c(Cl)c3)C2(Cl)Cl)cc(F)c1F` [F1779, 5-((1R,3R)-2,2-Dichloro-3-(3,4,5-trichlorophenyl)cyclopropane-1-carboxamido)-N-(2,6-difluoro-3-(2,2,3,3,4,4,4-heptafluorobutanamido)phenyl)-2,3-difluorobenzamide], the pest or weed control at 50 µg/cm2 in assay [1] (setting [3]) and in assay [2] (setting [4]) was 50 to 100% throughout.

For `O=C(NN=CC1CC1)c1cc(NC(=O)[C@H]2[C@H](c3cc(Cl)cc(Cl)c3)C2(Cl)Cl)ccc1Cl` (relative stereo) [F3007, trans-2,2-Dichloro-N-(4-chloro-3-(2-(cyclopropylmethylene)hydrazine-1-carbonyl)phenyl)-3-(3,5-dichlorophenyl)cyclopropane-1-carboxamide], the mortality at 50 µg/cm2 lay within 50 to 100% in assay [1] (168 h, second instar larvae, 50 μg/cm^2 of test molecule on artificial diet, 25° C., five to seven days, average of eight wells, read-out: CL % Control (or Mortality) rating) and 50 to 100% in assay [2] (168 h, second instar larvae, 50 μg/cm^2 of test molecule on artificial diet, 25° C., five to seven days, average of eight wells, read-out: BAW % Control (or Mortality) rating). The pest or weed control at 50 µg/cm2 in assay [1] (setting [3]) and in assay [2] (setting [4]) was 50 to 100% each time.

As for `CC(=O)Nc1cc(NC(=O)c2cc(NC(=O)[C@H]3[C@H](c4ccc(Cl)c(Cl)c4)C3(Cl)Cl)cc(F)c2F)c(F)cc1F` [F1585, N-(5-Acetamido-2,4-difluorophenyl)-5-((1R,3R)-2,2-dichloro-3-(3,4-dichlorophenyl)cyclopropane-1-carboxamido)-2,3-difluorobenzamide], the pest or weed control at 50 µg/cm2 in assay [1] (setting [7]) and in assay [2] (setting [8]) was 50 to 100% in each case.

Turning to `O=C(Nc1ccc(F)c(NC(=O)C(Cl)(Cl)Cl)c1F)c1cc(NC(=O)[C@H]2[C@H](c3ccc(Cl)c(Cl)c3)C2(Cl)Cl)ccc1Cl` [F1063, 2-Chloro-5-((1R,3R)-2,2-dichloro-3-(3,4-dichlorophenyl)cyclopropane-1-carboxamido)-N-(2,4-difluoro-3-(2,2,2-trichloroacetamido)phenyl)benzamide], the pest or weed control at 50 µg/cm2 in assay [1] (setting [5]) and in assay [2] (setting [6]) was 50 to 100% throughout.

For `CC(C)(C)OC(=O)Nc1c(F)ccc(NC(=O)c2cc(NC(=O)[C@H]3[C@H](c4cc(F)cc(Br)c4F)C3(Cl)Cl)ccc2Cl)c1F` (relative stereo) [F1095, trans-tert-Butyl-(3-(5-(3-(3-bromo-2,5-difluorophenyl)-2,2-dichlorocyclopropane-1-carboxamido)-2-chlorobenzamido)-2,6-difluorophenyl)carbamate], the pest or weed control at 50 µg/cm2 in assay [1] (setting [5]) and in assay [2] (setting [6]) was 50 to 100% in each case.

In the case of `O=C(Nc1c(F)ccc(NC(=O)c2cc(NC(=O)[C@H]3[C@H](c4ccc(F)c(C(F)(F)F)c4)C3(Cl)Cl)ccc2Cl)c1F)c1ccccc1` [F1179, N-(3-Benzamido-2,4-difluorophenyl)-2-chloro-5-((1R,3R)-2,2-dichloro-3-(4-fluoro-3-(trifluoromethyl)phenyl)cyclopropane-1-carboxamido)benzamide], the pest or weed control at 50 µg/cm2 in assay [1] (setting [5]) and in assay [2] (setting [6]) was 50 to 100% each time.
